# Results: patent US6403534B1, “Uracil compounds and use thereof” (Sumitomo Chemical Company, Limited, priority 2000, dated 2002)
# Key:
# [1] = system: blackgrass; test: Test Example 3: foliar treatment of field; format: in vivo, Alopecurus myosuroides; design: key: “0” means that there was no or little difference in the degree of germination or growth between the treated and the untreated tested plants at the time of examination; “10” means that the test plants died completely or their germination or growth was completely inhibited; conditions: index 0 to 10, 16 days after application
# Protocol: (§1) Test for Foliar Treatment of Field A cylindrical plastic pot having a diameter of 10 cm and a depth of 10 cm was filled with soil and then seeded with ivyleaf morningglory and blackgrass. These test plants were grown in a greenhouse for 10 days. Then, each of the test compounds was formulated into an emulsifiable concentrate according to Formulation Example 2 and then diluted to the prescribed amount with water containing a spreading agent and the dilution was uniformly sprayed over the foliage of the test plants with a sprayer at a rate of 1000 liters per hectare. After the application, the test plants were grown in the greenhouse for 16 days, and the herbicidal activity was examined.
# [2] = system: barnyardgrass; test: Test Example 4: soil surface treatment of field; format: in vivo, Echinochloa crus-galli; design: key: “0” means that there was no or little difference in the degree of germination or growth between the treated and the untreated tested plants at the time of examination; “10” means that the test plants died completely or their germination or growth was completely inhibited; conditions: index 0 to 10, 12 days after application
# Source text: (§2) Test for Soil Surface Treatment of Field A plastic pot having an area of (26.5×19) cm^2 and a depth of 7 cm was filled with soil and then seeded with ivyleaf morningglory, velvetleaf, barnyardgrass and giant foxtail. Then, each of the test compounds was formulated into an emulsifiable concentrate according to Formulation Example 2 and then diluted to the prescribed amount with water, and the dilution was uniformly sprayed over the surface of the soil with a sprayer at a rate of 1000 liters per hectare. After the application, the test plants were grown in the greenhouse for 12 days, and the herbicidal activity was examined. The herbicidal activity was evaluated by the same method as in Test Example 3.
# [3] = system: velvetleaf; test: Test Example 4: soil surface treatment of field; format: in vivo, Abutilon theophrasti; design: key: “0” means that there was no or little difference in the degree of germination or growth between the treated and the untreated tested plants at the time of examination; “10” means that the test plants died completely or their germination or growth was completely inhibited; conditions: index 0 to 10, 12 days after application
# Source text: as §2
# [4] = system: giant foxtail; test: Test Example 4: soil surface treatment of field; format: in vivo, Setaria faberi; design: key: “0” means that there was no or little difference in the degree of germination or growth between the treated and the untreated tested plants at the time of examination; “10” means that the test plants died completely or their germination or growth was completely inhibited; conditions: index 0 to 10, 12 days after application
# Source text: as §2
# [5] = system: ivyleaf morningglory; test: Test Example 4: soil surface treatment of field; format: in vivo, Ipomoea hederacea; design: key: “0” means that there was no or little difference in the degree of germination or growth between the treated and the untreated tested plants at the time of examination; “10” means that the test plants died completely or their germination or growth was completely inhibited; conditions: index 0 to 10, 12 days after application
# Source text: as §2
# [6] = system: ivyleaf morningglory; test: Test Example 3: foliar treatment of field; format: in vivo, Ipomoea hederacea; design: key: “0” means that there was no or little difference in the degree of germination or growth between the treated and the untreated tested plants at the time of examination; “10” means that the test plants died completely or their germination or growth was completely inhibited; conditions: index 0 to 10, 16 days after application
# Protocol: as §1
# [7] = system: blackgrass; test: Test Example 2: soil surface treatment of field; format: in vivo, Alopecurus myosuroides; conditions: soil surface spray, 500 g/ha, examined 19 days after application
# Source text: (§3) Test for Soil Surface Treatment of Field
# (§4) A cylindrical plastic pot having a diameter of 10 cm and a depth of 10 cm was filled with soil and then seeded with barnyardgrass, blackgrass, ivyleaf morningglory and velvetleaf. Then, each of compounds 1-2, 1-3, 1-7, 1-19 and 1-28 was formulated into an emulsifiable concentrate according to Formulation Example 2 and then diluted to the prescribed amount with water, and the dilution was uniformly sprayed over the surface of the soil with a sprayer at a rate of 1000 liters per hectare. After the application, the test plants were grown in the greenhouse for 19 days, and the herbicidal activity was examined.
# [8] = system: velvetleaf; test: Test Example 2: soil surface treatment of field; format: in vivo, Abutilon theophrasti; conditions: soil surface spray, 500 g/ha, examined 19 days after application
# Source text: as §3, §4
# [9] = system: velvetleaf; test: Test Example 1: foliar treatment of field; format: in vivo, Abutilon theophrasti; conditions: foliar spray, 125 g/ha, plants grown 14 days before, examined 16 days after application
# Protocol: (§5) Test for Foliar Treatment of Field
# (§6) A cylindrical plastic pot having a diameter of 10 cm and a depth of 10 cm was filled with soil and then seeded with barnyardgrass, blackgrass, ivyleaf morningglory and velvetleaf These test plants were grown in a greenhouse for 14 days. Then, each of compounds 1-2, 1-3, 1-7, 1-19 and 1-28 was formulated into an emulsifiable concentrate according to Formulation Example 2 and then diluted to the prescribed amount with water containing a spreading agent and the dilution was uniformly sprayed over the foliage of the test plants with a sprayer at a rate of 1000 liters per hectare. After the application, the test plants were grown in the greenhouse for 16 days, and the herbicidal activity was determined.
# [10] = system: ivyleaf morningglory; test: Test Example 2: soil surface treatment of field; format: in vivo, Ipomoea hederacea; conditions: soil surface spray, 500 g/ha, examined 19 days after application
# Source text: as §3, §4
# [11] = system: barnyardgrass; test: Test Example 1: foliar treatment of field; format: in vivo, Echinochloa crus-galli; conditions: foliar spray, 125 g/ha, plants grown 14 days before, examined 16 days after application
# Protocol: as §5, §6
# [12] = system: blackgrass; test: Test Example 1: foliar treatment of field; format: in vivo, Alopecurus myosuroides; conditions: foliar spray, 125 g/ha, plants grown 14 days before, examined 16 days after application
# Protocol: as §5, §6
# [13] = system: ivyleaf morningglory; test: Test Example 1: foliar treatment of field; format: in vivo, Ipomoea hederacea; conditions: foliar spray, 125 g/ha, plants grown 14 days before, examined 16 days after application
# Protocol: as §5, §6
# [14] = system: barnyardgrass; test: Test Example 2: soil surface treatment of field; format: in vivo, Echinochloa crus-galli; conditions: soil surface spray, 500 g/ha, examined 19 days after application
# Source text: as §3, §4
compound,measurement,setting,value
"C=CCOC(=O)C(C)(C)Oc1cc(-n2c(=O)cc(C(F)(F)F)n(C)c2=O)c(F)cc1Cl [Comparative compound A, reference compound]",Herbicidal activity Blackgrass,[1]; dosage 8 g/ha,3
same,Herbicidal activity Blackgrass,[1]; dosage 32 g/ha,4
same,Herbicidal activity Blackgrass,[1]; dosage 125 g/ha,6
same,Herbicidal activity Barnyard grass,[2]; dosage 32 g/ha,1
same,Herbicidal activity Barnyard grass,[2]; dosage 125 g/ha,7
same,Herbicidal activity Barnyard grass,[2]; dosage 500 g/ha,10
same,Herbicidal activity Velvet leaf,[3]; dosage 32 g/ha,3
same,Herbicidal activity Velvet leaf,[3]; dosage 125 g/ha,10
same,Herbicidal activity Velvet leaf,[3]; dosage 500 g/ha,10
same,Herbicidal activity Giant foxtail,[4]; dosage 32 g/ha,4
same,Herbicidal activity Giant foxtail,[4]; dosage 125 g/ha,10
same,Herbicidal activity Giant foxtail,[4]; dosage 500 g/ha,10
same,Herbicidal activity Ivyleaf morningglory,[5]; dosage 32 g/ha,0
same,Herbicidal activity Ivyleaf morningglory,[5]; dosage 125 g/ha,4
same,Herbicidal activity Ivyleaf morningglory,[5]; dosage 500 g/ha,8
same,Herbicidal activity Ivyleaf morningglory,[6]; dosage 8 g/ha,7
same,Herbicidal activity Ivyleaf morningglory,[6]; dosage 32 g/ha,10
same,Herbicidal activity Ivyleaf morningglory,[6]; dosage 125 g/ha,10
"COC(=O)C1(Oc2cc(-n3c(=O)cc(C(F)(F)F)n(C)c3=O)c(F)cc2Cl)CC1 [Compound 1-2, methyl 1-[2-chloro-4-fluoro-5-{3-methyl-2,6-dioxo-4-(trifluoro-methyl)-1,2,3,6-tetrahydropyrimidin-1-yl}phenoxy]cyclo-propanecarboxylate]",herbicidal activity (germination of blackgrass),[7],completely controlled
same,herbicidal activity (germination of velvetleaf),[8],completely controlled
same,herbicidal activity (growth of velvetleaf),[9],completely controlled
same,herbicidal activity (germination of ivyleaf morningglory),[10],completely controlled
same,herbicidal activity (growth of barnyardgrass),[11],completely controlled
same,herbicidal activity (growth of blackgrass),[12],completely controlled
same,herbicidal activity (growth of ivyleaf morningglory),[13],completely controlled
same,herbicidal activity (germination of barnyardgrass),[14],completely controlled
"CCOC(=O)C1(Oc2cc(-n3c(=O)cc(C(F)(F)F)n(C)c3=O)c(F)cc2Cl)CC1 [Compound 1-3, ethyl 1-[2-chloro-4-fluoro-5-{3-methyl-2,6-dioxo-4-(trifluoromethyl)-1,2,3,6-tetrahydropyrimidin-1-yl}phenoxy]cyclopropanecarboxylate]",herbicidal activity (germination of blackgrass),[7],completely controlled
same,herbicidal activity (germination of velvetleaf),[8],completely controlled
same,herbicidal activity (growth of velvetleaf),[9],completely controlled
same,herbicidal activity (germination of ivyleaf morningglory),[10],completely controlled
same,herbicidal activity (growth of barnyardgrass),[11],completely controlled
same,herbicidal activity (growth of blackgrass),[12],completely controlled
same,herbicidal activity (growth of ivyleaf morningglory),[13],completely controlled
same,herbicidal activity (germination of barnyardgrass),[14],completely controlled
C=CCOC(=O)C1(Oc2cc(-n3c(=O)cc(C(F)(F)F)n(C)c3=O)c(F)cc2Cl)CC1 [Compound 1-7],Herbicidal activity Blackgrass,[1]; dosage 8 g/ha,5
same,Herbicidal activity Blackgrass,[1]; dosage 32 g/ha,6
same,Herbicidal activity Blackgrass,[1]; dosage 125 g/ha,10
same,herbicidal activity (germination of blackgrass),[7],completely controlled
same,Herbicidal activity Barnyard grass,[2]; dosage 32 g/ha,6
same,Herbicidal activity Barnyard grass,[2]; dosage 125 g/ha,10
same,Herbicidal activity Barnyard grass,[2]; dosage 500 g/ha,10
same,herbicidal activity (germination of velvetleaf),[8],completely controlled
same,herbicidal activity (growth of velvetleaf),[9],completely controlled
same,Herbicidal activity Velvet leaf,[3]; dosage 32 g/ha,10
same,Herbicidal activity Velvet leaf,[3]; dosage 125 g/ha,10
same,Herbicidal activity Velvet leaf,[3]; dosage 500 g/ha,10
same,herbicidal activity (germination of ivyleaf morningglory),[10],completely controlled
same,herbicidal activity (growth of barnyardgrass),[11],completely controlled
same,Herbicidal activity Giant foxtail,[4]; dosage 32 g/ha,10
same,Herbicidal activity Giant foxtail,[4]; dosage 125 g/ha,10
same,Herbicidal activity Giant foxtail,[4]; dosage 500 g/ha,10
same,Herbicidal activity Ivyleaf morningglory,[5]; dosage 32 g/ha,2
same,Herbicidal activity Ivyleaf morningglory,[5]; dosage 125 g/ha,10
same,Herbicidal activity Ivyleaf morningglory,[5]; dosage 500 g/ha,10
same,herbicidal activity (growth of blackgrass),[12],completely controlled
same,herbicidal activity (growth of ivyleaf morningglory),[13],completely controlled
same,herbicidal activity (germination of barnyardgrass),[14],completely controlled
same,Herbicidal activity Ivyleaf morningglory,[6]; dosage 8 g/ha,10
same,Herbicidal activity Ivyleaf morningglory,[6]; dosage 32 g/ha,10
same,Herbicidal activity Ivyleaf morningglory,[6]; dosage 125 g/ha,10
CSC(=O)C1(Oc2cc(-n3c(=O)cc(C(F)(F)F)n(C)c3=O)c(F)cc2Cl)CC1 [Compound 1-19],herbicidal activity (germination of blackgrass),[7],completely controlled
same,herbicidal activity (germination of velvetleaf),[8],completely controlled
same,herbicidal activity (growth of velvetleaf),[9],completely controlled
same,herbicidal activity (germination of ivyleaf morningglory),[10],completely controlled
same,herbicidal activity (growth of barnyardgrass),[11],completely controlled
same,herbicidal activity (growth of blackgrass),[12],completely controlled
same,herbicidal activity (growth of ivyleaf morningglory),[13],completely controlled
same,herbicidal activity (germination of barnyardgrass),[14],completely controlled
COC(=O)C(CC(C)C)NC(=O)C1(Oc2cc(-n3c(=O)cc(C(F)(F)F)n(C)c3=O)c(F)cc2Cl)CC1 (stereo not shown) [Compound 1-28],herbicidal activity (germination of blackgrass),[7],completely controlled
same,herbicidal activity (germination of velvetleaf),[8],completely controlled
same,herbicidal activity (growth of velvetleaf),[9],completely controlled
same,herbicidal activity (germination of ivyleaf morningglory),[10],completely controlled
same,herbicidal activity (growth of barnyardgrass),[11],completely controlled
same,herbicidal activity (growth of blackgrass),[12],completely controlled
same,herbicidal activity (growth of ivyleaf morningglory),[13],completely controlled
same,herbicidal activity (germination of barnyardgrass),[14],completely controlled
